Measurements: patent US8188059B2, “Compounds and methods for modulating expression of GCGR” (Isis Pharmaceuticals, Inc., priority 2006, dated 2012)
Strand notation (5' to 3'): a small letter for the sugar, then the base; units joined by * are phosphorothioate-linked, units joined directly phosphodiester-linked; [ ] holds rarer units or linkages, { } end groups; capitals alone tell only the bases. [PALM-N] = nucleoside bearing a 2'-(butylacetamido)-palmitamide (C16 palmitic acid) substituent (N: the base); e = 2'-O-(2-methoxyethyl) (MOE); l = locked nucleic acid (LNA); [5mC] = 5-methylcytosine; d = 2'-deoxy (DNA)

Experiments:
human SGLT2 = biological target: T1, human SGLT2 (Homo sapiens, UniProt P31639); details: cited from earlier work
T1 construct: host or cells: Xenopus oocytes (heterologous expression after injection)
T1 sequence (P31639 1-672): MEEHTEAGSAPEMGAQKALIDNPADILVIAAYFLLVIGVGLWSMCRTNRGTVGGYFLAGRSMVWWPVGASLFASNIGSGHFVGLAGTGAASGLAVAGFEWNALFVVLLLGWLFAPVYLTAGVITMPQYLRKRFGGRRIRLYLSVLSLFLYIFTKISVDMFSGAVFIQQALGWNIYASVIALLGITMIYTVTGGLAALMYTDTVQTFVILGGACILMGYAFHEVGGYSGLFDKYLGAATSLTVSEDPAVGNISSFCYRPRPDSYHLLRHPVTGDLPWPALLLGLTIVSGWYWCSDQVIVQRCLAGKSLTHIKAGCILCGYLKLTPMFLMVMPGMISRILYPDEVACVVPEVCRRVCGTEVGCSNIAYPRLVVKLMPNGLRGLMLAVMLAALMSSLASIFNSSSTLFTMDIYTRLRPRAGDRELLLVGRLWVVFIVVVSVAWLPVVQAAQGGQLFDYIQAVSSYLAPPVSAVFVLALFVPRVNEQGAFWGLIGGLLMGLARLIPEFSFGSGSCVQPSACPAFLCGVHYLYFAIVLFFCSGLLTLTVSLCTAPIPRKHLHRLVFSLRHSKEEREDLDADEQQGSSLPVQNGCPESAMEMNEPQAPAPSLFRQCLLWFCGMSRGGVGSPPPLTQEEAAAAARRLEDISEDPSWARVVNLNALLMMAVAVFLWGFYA

SGLT-2 mRNA [1] = assay: SGLT-2 mRNA levels in kidney of normal rats after intrajejunal administration (Example 11); type: in vivo, rat; details: 100 mg/kg twice per week intrajejunal
SGLT-2 mRNA [2] = assay: SGLT-2 mRNA levels in kidney of ZDF rats, parent versus 12 nucleobase compound (Example 10); type: in vivo, rat
Protocol: In a next study, ZDF rats were dosed intraperitoneally twice per week with 1.5 mg/kg of either ISIS 257016 or ISIS 370717, or with saline at a similar dosing schedule. ISIS 370717 is a 12 nucleobase antisense compound targeted to SGLT-2 nucleic acid comprising the sequence […] […] All cytidine residues are 5-methylcytidines.
The date support that ISIS 257016 is a prodrug having a 12 nucleotide pharmacophore.

mouse SGLT2 mRNA [3] = assay: Mouse SGLT2 mRNA levels in kidney, 1-10-1 MOE gapmers, Balb/c mice (Example 14, Table 65); type: in vivo
Protocol: The short antisense compounds were analyzed for their effect on mouse SGLT2 mRNA levels. Data was taken from three experiments in which Male 6-week old Balb/c mice were dosed twice per week for two weeks with 450, 150, or 50 nmol/kg of one of the above 1-10-1 MOE gapmers given by intraperitoneal injection. Mice were sacrificed 48 hours following last administration and evaluated for SGLT2 mRNA levels in kidney. Target levels were determined by RT, real-time PCR as described by other examples herein. PCR results were normalized to an internal ISIS control.

rat SGLT2 mRNA [4] = assay: Rat SGLT2 mRNA levels in kidney, 1-10-1 gapmers at 250 nmol/kg, Sprague-Dawley rats (Example 14, Table 66); type: in vivo; details: 250 nmol/kg i.p. twice per week for three weeks; Sprague-Dawley rats; kidney
Protocol: The effect of the above 1-10-1gapmers (see Table 64 above) on rat SGLT2 mRNA levels. Data are taken from four experiments in which male Sprague-Dawley rats (170-200 g) were dosed twice per week for three weeks with 250 nmol/kg given by intraperitoneal injection. Rats were sacrificed 48 hours following last administration and evaluated for SGLT2 mRNA levels in kidney. Target levels were determined by RT, real-time PCR as described by other examples herein. PCR results were normalized to an internal ISIS control.

rat SGLT2 mRNA [5] = assay: Rat SGLT2 mRNA levels in kidney, 1-10-1 and 1-10-2 MOE gapmers, Sprague-Dawley rats (Example 13, Table 63); type: in vivo
From the text: 1-10-1 and 1-10-2 MOE gapmer antisense compounds, provided in Table 62, were designed to target different regions of the mouse or rat SGLT2 RNA. All short antisense compounds in Table 62 are chimeric oligonucleotides (“gapmers”) either 12 or 13 nucleotides in length, composed of a central “gap” segment consisting of ten 2′-deoxynucleotides, which are flanked on the 5′ side by a one-nucleoside “wing” and on the 3′ side by a two or one-nucleotide “wing”. […] All cytidine residues are 5-methylcytidines.
The short antisense compounds were analyzed for their effect on rat SGLT2 mRNA levels. Data are ranges taken from three experiments in which Male Sprague-Dawley rats (170-200 g) were dosed twice per week for three weeks with 450, 150 or 50 nmol/kg of either a 1-10-1 or 1-10-2 MOE gapmer given by intraperitoneal injection. Rats were sacrificed 48 hours following last administration and evaluated for SGLT2 mRNA levels in kidney. Target levels were determined by RT, real-time PCR as described by other examples herein. PCR results were normalized to an internal ISIS control.

mouse SGLT2 mRNA [6] = assay: Mouse SGLT2 mRNA levels in kidney, wing, gap and length variations (Example 12, Table 61); type: in vivo; details: mice
Protocol: ISIS 370717 1-10-1 MOE gapmer was used as a template to make sequence related oligos with varying motifs. The antisense compounds were designed to target different regions of the mouse or rat SGLT2 nucleic acid, using published sequences (GenBank accession number U29881.1, incorporated herein as SEQ ID NO: 1575, and GenBank accession number AJ292928.1, incorporated herein as SEQ ID NO: 1576, respectively).
The antisense compounds were analyzed for their effect on mouse SGLT2 mRNA levels. Data are ranges taken from three experiments in which mice were dosed twice per week for three weeks with 2.5, 0.5 or 0.1 umol/kg of the above MOE gapmers given by intraperitoneal injection. Mice were sacrificed 48 hours following last administration and evaluated for SGLT2 levels in kidney. SGLT2 mRNA levels were determined by RT, real-time PCR as described by other examples herein. PCR results were normalized to an internal ISIS control.

ApoB mRNA = ApoB mRNA in liver of Balb/c mice, palmitic acid conjugates, single i.p. dose, with ED50 (Example 30, Table 95); type: in vivo, mouse; details: single i.p. injection
Protocol: (§1) 0.4, and 0.16 umol/kg. Each dose group consisted of four animals. A 5-10-5 MOE gapmer was used for a control treatment. Mice were sacrificed approximately 48 hours following the final dose. Liver tissue was collected for RNA isolation, and blood was collected for serum chemistry analyses. ApoB mRNA levels were measured by real-time PCR as described herein. ApoB mRNA levels were normalized to RNA levels as determined by RIBOGREEN, and are presented in Table 95 as percent inhibition relative to ApoB mRNA levels in saline-treated control animals.
(§2) At the 2.5 umol/kg dose, ApoB inhibition by the short antisense compounds was greater than observed with a 5-10-5 MOE gapmer at an equivalent dose. […] Triglycerides were reduced at the 2.5 and […] doses of ISIS 387462 and ISIS 391872.

[7] = Triglycerides, total cholesterol, HDL-C, LDL-C and adverse effects (Example 30); type: in vivo, mouse
Protocol: as §1, §2

O=C(CCc1ccc(O)cc1)c1c(O)cc(O)cc1O[C@@H]1O[C@H](CO)[C@@H](O)[C@H](O)[C@H]1O [phlorizin]
transport activity (human SGLT2; You et al., 1995): suppressed

CO[C@H]1O[C@H](CO)[C@@H](O)[C@H](O)[C@H]1O [α-MeG1c, α-methyl-D-glucopyranoside]
Km (human SGLT2; sodium-dependent transport (Kanai et al., 1994; You et al., 1995)): 1600 µM

ISIS 370717: SGLT2; TAGCCACCAACT 1-10-1 MOE gapmer, phosphorothioate (sugars from the 5' end e1 d10 e1, all phosphorothioate, methylation of C not given here)
SGLT-2 mRNA reduced over the controls (SGLT-2 mRNA [1]): more than 80%
pharmacological activity (SGLT-2 mRNA [2]; ZDF rats, 1.5 mg/kg i.p. twice per week, five weeks): similar
onset of action (SGLT-2 mRNA [2]; compared with ISIS 257016): faster onset of action
inhibition of SGLT2 expression in kidney (SGLT-2 mRNA [2]; day two after a single dose of 2.8 umoles/kg): ~80%
% change in SGLT2 expression relative to saline (mouse SGLT2 mRNA [3]; 50 nmol/kg i.p. twice per week for two weeks): −47.5%
% change in SGLT2 expression relative to saline (mouse SGLT2 mRNA [3]; 150 nmol/kg i.p. twice per week for two weeks): −55%
% change in SGLT2 expression relative to saline (mouse SGLT2 mRNA [3]; 450 nmol/kg i.p. twice per week for two weeks): −65%
% change in SGLT2 expression relative to saline (rat SGLT2 mRNA [4]): −70%
% change in SGLT2 expression relative to saline (rat SGLT2 mRNA [5]; 50 nmol/kg i.p. twice per week for three weeks): −55%
% change in SGLT2 expression relative to saline (rat SGLT2 mRNA [5]; 150 nmol/kg i.p. twice per week for three weeks): −70%
% change in SGLT2 expression relative to saline (rat SGLT2 mRNA [5]; 450 nmol/kg i.p. twice per week for three weeks): −70%
% change in SGLT2 expression relative to saline (mouse SGLT2 mRNA [6]; 0.1 umol/kg i.p. twice per week for three weeks): −55%
% change in SGLT2 expression relative to saline (mouse SGLT2 mRNA [6]; 0.5 umol/kg i.p. twice per week for three weeks): −70%

ISIS 391872: ApoB; GGTACATGGAAGTC 1-1-10-2 2′-(butylacetomido)-palmitamide Methyleneoxy BNA/Methyleneoxy BNA Unmodified cytosines in gap (antisense [PALM-G]*lG*dT*dA*dC*dA*dT*dG*dG*dA*dA*dG*lT*l[5mC])
estimated ED50 (ApoB mRNA): 1.9 mg/kg
LDL-C ([7]; Example 30): fell below the limit of detection
Triglycerides ([7]; at the 2.5 and 1.0 mg/kg doses (so in the source)): reduced
total cholesterol, HDL-C and LDL-C ([7]; dose-dependent manner): markedly reduced
